± gives the standard deviation of the averaged measurements.
Columns and labels:
[1] = compound: T1, CC[C@@H]1C(=O)N(C)c2cnc(Nc3ccc(C(=O)NC4CCN(C)CC4)cc3OC)nc2N1C1CCCC1 [BI-2536]; test: area under dose-response curve of surviving fraction (unscaled, Aref=0) (surviving fraction x log10(nM)); higher = more resistant; conditions: exposure time: 5 days; dose range 0.5-1000 nM
Method in brief: (§1)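 Tumour cell lines in 384-well plates were exposed for five days to eight inhibitor concentrations from 0.5 to 1000 nM. Viability was read by CellTiter-Glo luminescence, normalised to DMSO-only wells, in three screens per line. Dose-response survival curves were fitted to surviving fractions by 3-parameter logistic regression in the drc R package. Area under the curve is the unscaled activity area (Aref = 0) over log10 dose.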

[2] = compound: T2, CN(C)C/C=C/C(=O)Nc1cc2c(Nc3ccc(F)c(Cl)c3)ncnc2cc1O[C@H]1CCOC1 [AFATINIB]; test: as above; conditions: exposure time: 5 days; dose range 0.5-1000 nM
Method in brief: as §1

[3] = compound: T3, CNC(=O)c1ccc(N2C(=S)N(c3ccc(C#N)c(C(F)(F)F)c3)C(=O)C2(C)C)cc1F [MDV3100]; test: as above; conditions: exposure time: 5 days; dose range 0.5-1000 nM
Method in brief: as §1

[4] = compound: T4, C=CC(=O)Nc1cc2c(Nc3ccc(F)c(Cl)c3)ncnc2cc1OCCCN1CCOCC1 [CANERTINIB]; test: as above; conditions: exposure time: 5 days; dose range 0.5-1000 nM
Method in brief: as §1

[5] = compound: T5, Nc1nc2[nH]cnc2c(=S)[nH]1 [TIOGUANINE]; test: as above; conditions: exposure time: 5 days; dose range 0.5-1000 nM
Method in brief: as §1

[6] = compound: T6, CC1(C)CC(=O)c2c(C(F)(F)F)nn(-c3ccc(C(N)=O)c(N[C@H]4CC[C@H](OC(=O)CN)CC4)c3)c2C1 [SNX-5422]; test: as above; conditions: exposure time: 5 days; dose range 0.5-1000 nM
Method in brief: as §1

[7] = compound: Cn1cc(C2=Nc3cc(NC(=O)C(N)C4CCCCC4)cc4c3C2=CNNC4=O)cn1; test: as above; conditions: exposure time: 5 days; dose range 0.5-1000 nM
Method in brief: as §1

[8] = compound: T7, CCCCCCCCCCCCCCCC(=O)Nc1ccn([C@@H]2O[C@H](CO)[C@@H](O)[C@@H]2C#N)c(=O)n1 [SAPACITABINE]; test: as above; conditions: exposure time: 5 days; dose range 0.5-1000 nM
Method in brief: as §1

[9] = compound: T1, BI-2536; test: surviving fraction relative to DMSO-only wells; higher = less growth inhibition; conditions: exposure time: 5 days
Method in brief: (§2)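 Surviving fraction was calculated by normalising CellTiter-Glo luminescence to the median of DMSO-only wells. Tumour cell lines in log phase were seeded in 384-well plates at 250–500 cells per well, and 24 hours later were exposed continuously for five days to inhibitors at 0.5, 1, 5, 10, 50, 100, 500 and 1000 nM.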

[10] = compound: T2, AFATINIB; test: as above; conditions: exposure time: 5 days
Method in brief: as §2

[11] = compound: T3, MDV3100; test: as above; conditions: exposure time: 5 days
Method in brief: as §2

[12] = compound: T4, CANERTINIB; test: as above; conditions: exposure time: 5 days
Method in brief: as §2

[13] = compound: T5, TIOGUANINE; test: as above; conditions: exposure time: 5 days
Method in brief: as §2

[14] = compound: T6, SNX-5422; test: as above; conditions: exposure time: 5 days
Method in brief: as §2

[15] = compound: Cn1cc(C2=Nc3cc(NC(=O)C(N)C4CCCCC4)cc4c3C2=CNNC4=O)cn1; test: as above; conditions: exposure time: 5 days
Method in brief: as §2

[16] = compound: T7, SAPACITABINE; test: as above; conditions: exposure time: 5 days
Method in brief: as §2

Test System: HUO3N1 BONE
- area under dose-response curve [1]: 1.56
- area under dose-response curve [2]: 3.17
- area under dose-response curve [3]: 3.37
- area under dose-response curve [4]: 3.18
- area under dose-response curve [5]: 3.41
- area under dose-response curve [6]: 2.53
- area under dose-response curve [7]: 2.88
- area under dose-response curve [8]: 2.73
- surviving fraction ([9]; 0.5 nM): 0.991 ± 0.0085
- surviving fraction ([9]; 1 nM): 0.994 ± 0.071
- surviving fraction ([9]; 5 nM): 0.6 ± 0.1
- surviving fraction ([9]; 10 nM): 0.242 ± 0.035
- surviving fraction ([9]; 50 nM): 0.211 ± 0.0099
- surviving fraction ([9]; 100 nM): 0.204 ± 0.022
- surviving fraction ([9]; 500 nM): 0.265 ± 0.014
- surviving fraction ([9]; 1000 nM): 0.303 ± 0.016
- surviving fraction ([10]; 0.5 nM): 1.03 ± 0.034
- surviving fraction ([10]; 1 nM): 1 ± 0.019
- surviving fraction ([10]; 5 nM): 1.06 ± 0.027
- surviving fraction ([10]; 10 nM): 1.04 ± 0.068
- surviving fraction ([10]; 50 nM): 1.03 ± 0.031
- surviving fraction ([10]; 100 nM): 0.959 ± 0.017
- surviving fraction ([10]; 500 nM): 0.824 ± 0.028
- surviving fraction ([10]; 1000 nM): 0.631 ± 0.034
- surviving fraction ([11]; 0.5 nM): 1.01 ± 0.018
- surviving fraction ([11]; 1 nM): 0.989 ± 0.025
- surviving fraction ([11]; 5 nM): 1.01 ± 0.044
- surviving fraction ([11]; 10 nM): 1.03 ± 0.044
- surviving fraction ([11]; 50 nM): 1.06 ± 0.054
- surviving fraction ([11]; 100 nM): 1.02 ± 0.041
- surviving fraction ([11]; 500 nM): 1.01 ± 0.069
- surviving fraction ([11]; 1000 nM): 1.01 ± 0.019
- surviving fraction ([12]; 0.5 nM): 0.949 ± 0.063
- surviving fraction ([12]; 1 nM): 0.949 ± 0.015
- surviving fraction ([12]; 5 nM): 0.965 ± 0.069
- surviving fraction ([12]; 10 nM): 0.943 ± 0.069
- surviving fraction ([12]; 50 nM): 1 ± 0.027
- surviving fraction ([12]; 100 nM): 0.995 ± 0.02
- surviving fraction ([12]; 500 nM): 0.808 ± 0.03
- surviving fraction ([12]; 1000 nM): 0.701 ± 0.022
- surviving fraction ([13]; 0.5 nM): 0.992 ± 0.071
- surviving fraction ([13]; 1 nM): 1.02 ± 0.098
- surviving fraction ([13]; 5 nM): 1.1 ± 0.059
- surviving fraction ([13]; 10 nM): 0.98 ± 0.058
- surviving fraction ([13]; 50 nM): 1.02 ± 0.019
- surviving fraction ([13]; 100 nM): 1.06 ± 0.049
- surviving fraction ([13]; 500 nM): 1.06 ± 0.055
- surviving fraction ([13]; 1000 nM): 1.02 ± 0.018
- surviving fraction ([14]; 0.5 nM): 0.99 ± 0.02
- surviving fraction ([14]; 1 nM): 1.03 ± 0.021
- surviving fraction ([14]; 5 nM): 1.07 ± 0.032
- surviving fraction ([14]; 10 nM): 1.1 ± 0.06
- surviving fraction ([14]; 50 nM): 0.767 ± 0.023
- surviving fraction ([14]; 100 nM): 0.503 ± 0.026
- surviving fraction ([14]; 500 nM): 0.391 ± 0.02
- surviving fraction ([14]; 1000 nM): 0.319 ± 0.0095
- surviving fraction ([15]; 0.5 nM): 1.01 ± 0.021
- surviving fraction ([15]; 1 nM): 0.991 ± 0.062
- surviving fraction ([15]; 5 nM): 1.02 ± 0.039
- surviving fraction ([15]; 10 nM): 1.03 ± 0.023
- surviving fraction ([15]; 50 nM): 0.975 ± 0.043
- surviving fraction ([15]; 100 nM): 0.863 ± 0.041
- surviving fraction ([15]; 500 nM): 0.504 ± 0.024
- surviving fraction ([15]; 1000 nM): 0.319 ± 0.04
- surviving fraction ([16]; 0.5 nM): 0.915 ± 0.032
- surviving fraction ([16]; 1 nM): 0.908 ± 0.036
- surviving fraction ([16]; 5 nM): 0.931 ± 0.037
- surviving fraction ([16]; 10 nM): 0.935 ± 0.024
- surviving fraction ([16]; 50 nM): 0.886 ± 0.056
- surviving fraction ([16]; 100 nM): 0.766 ± 0.056
- surviving fraction ([16]; 500 nM): 0.528 ± 0.012
- surviving fraction ([16]; 1000 nM): 0.438 ± 0.019

Test System: PCI30 HEADNECK
- area under dose-response curve [1]: 1.08
- area under dose-response curve [2]: 1.61
- area under dose-response curve [3]: 3.18
- area under dose-response curve [4]: 2.01
- area under dose-response curve [5]: 3.19
- area under dose-response curve [6]: 2.2
- area under dose-response curve [7]: 2.65
- area under dose-response curve [8]: 2.94
- surviving fraction ([9]; 0.5 nM): 0.988 ± 0.027
- surviving fraction ([9]; 1 nM): 0.689 ± 0.054
- surviving fraction ([9]; 5 nM): 0.128 ± 0.015
- surviving fraction ([9]; 10 nM): 0.149 ± 0.01
- surviving fraction ([9]; 50 nM): 0.286 ± 0.029
- surviving fraction ([9]; 100 nM): 0.337 ± 0.02
- surviving fraction ([9]; 500 nM): 0.357 ± 0.0049
- surviving fraction ([9]; 1000 nM): 0.255 ± 0.011
- surviving fraction ([10]; 0.5 nM): 1.01 ± 0.1
- surviving fraction ([10]; 1 nM): 0.94 ± 0.073
- surviving fraction ([10]; 5 nM): 0.616 ± 0.019
- surviving fraction ([10]; 10 nM): 0.459 ± 0.0087
- surviving fraction ([10]; 50 nM): 0.4 ± 0.022
- surviving fraction ([10]; 100 nM): 0.358 ± 0.035
- surviving fraction ([10]; 500 nM): 0.241 ± 0.063
- surviving fraction ([10]; 1000 nM): 0.064 ± 0.011
- surviving fraction ([11]; 0.5 nM): 0.908 ± 0.034
- surviving fraction ([11]; 1 nM): 0.831 ± 0.075
- surviving fraction ([11]; 5 nM): 0.954 ± 0.071
- surviving fraction ([11]; 10 nM): 1.01 ± 0.08
- surviving fraction ([11]; 50 nM): 1.09 ± 0.056
- surviving fraction ([11]; 100 nM): 1 ± 0.014
- surviving fraction ([11]; 500 nM): 0.861 ± 0.088
- surviving fraction ([11]; 1000 nM): 0.945 ± 0.036
- surviving fraction ([12]; 0.5 nM): 0.962 ± 0.047
- surviving fraction ([12]; 1 nM): 0.879 ± 0.058
- surviving fraction ([12]; 5 nM): 0.866 ± 0.042
- surviving fraction ([12]; 10 nM): 0.641 ± 0.032
- surviving fraction ([12]; 50 nM): 0.485 ± 0.03
- surviving fraction ([12]; 100 nM): 0.47 ± 0.017
- surviving fraction ([12]; 500 nM): 0.323 ± 0.034
- surviving fraction ([12]; 1000 nM): 0.228 ± 0.028
- surviving fraction ([13]; 0.5 nM): 0.892 ± 0.097
- surviving fraction ([13]; 1 nM): 0.847 ± 0.013
- surviving fraction ([13]; 5 nM): 0.978 ± 0.097
- surviving fraction ([13]; 10 nM): 1.02 ± 0.047
- surviving fraction ([13]; 50 nM): 1.02 ± 0.063
- surviving fraction ([13]; 100 nM): 1.03 ± 0.016
- surviving fraction ([13]; 500 nM): 0.918 ± 0.045
- surviving fraction ([13]; 1000 nM): 0.88 ± 0.072
- surviving fraction ([14]; 0.5 nM): 1.08 ± 0.073
- surviving fraction ([14]; 1 nM): 1.06 ± 0.086
- surviving fraction ([14]; 5 nM): 1.13 ± 0.041
- surviving fraction ([14]; 10 nM): 1.17 ± 0.14
- surviving fraction ([14]; 50 nM): 0.716 ± 0.05
- surviving fraction ([14]; 100 nM): 0.316 ± 0.065
- surviving fraction ([14]; 500 nM): 0.0417 ± 0.0046
- surviving fraction ([14]; 1000 nM): 0.039 ± 0.001
- surviving fraction ([15]; 0.5 nM): 0.977 ± 0.021
- surviving fraction ([15]; 1 nM): 0.929 ± 0.027
- surviving fraction ([15]; 5 nM): 0.994 ± 0.051
- surviving fraction ([15]; 10 nM): 0.945 ± 0.014
- surviving fraction ([15]; 50 nM): 0.913 ± 0.029
- surviving fraction ([15]; 100 nM): 0.668 ± 0.039
- surviving fraction ([15]; 500 nM): 0.365 ± 0.025
- surviving fraction ([15]; 1000 nM): 0.333 ± 0.012
- surviving fraction ([16]; 0.5 nM): 0.899 ± 0.053
- surviving fraction ([16]; 1 nM): 0.916 ± 0.046
- surviving fraction ([16]; 5 nM): 0.946 ± 0.039
- surviving fraction ([16]; 10 nM): 0.984 ± 0.051
- surviving fraction ([16]; 50 nM): 0.965 ± 0.027
- surviving fraction ([16]; 100 nM): 0.801 ± 0.023
- surviving fraction ([16]; 500 nM): 0.555 ± 0.028
- surviving fraction ([16]; 1000 nM): 1.05 ± 0.13

Reference: the supplement of paper PMC6045584
